Reference: PMC3312789 (Journal of Immunology (Baltimore, Md. : 1950), 2008)
Where no end group is shown, it is not given here.

Assays:
Experiment in all cases: In vitro HLA-DR peptide binding assay
[1] = target: HLA DRB1*0101 (Homo sapiens, UniProt P01903+P01911, A100R/D57E/F55L/F60I/F76Y/I96L/L162R/M171V/P40L/Q125E/R42F/V115G/Y59C)
[2] = target: HLA DRB1*0301 (Homo sapiens, UniProt P01903+P01911, A100K/A102G/A103R/A169T/F55Y/I96L/K41T/L162R/M171V/P40S/Q125H/Q178H/Q39Y/R42S/S66N/T106N/T262R/W38E/Y61H)
[3] = target: HLA DRB1*0401 (Homo sapiens, UniProt P01903+P01911, A100K/A169T/F76Y/I96L/K127E/L162R/M171V/N62H/P40V/Q125Y/R42H/S133A/S149N/S66Y/V115G/V209L/W38E)
[4] = target: HLA DRB1*0404 (Homo sapiens, UniProt P01903+P01911, A100R/A169T/F76Y/I96L/K127E/L162R/M171V/N62H/P40V/Q125Y/R42H/S133A/S149N/S66Y/V209L/W38E)
[5] = target: HLA DRB1*0405 (Homo sapiens, UniProt P01903+P01911, A100R/A169T/D86S/F76Y/I96L/K127E/L162R/M171V/N62H/P40V/Q125Y/R42H/S133A/S149N/S66Y/V115G/V209L/W38E)
[6] = target: HLA DRB1*0701 (Homo sapiens, UniProt P01903+P01911, A100R/A102G/A103Q/D57E/D86V/E43K/F76Y/K127E/L162R/M171V/P40G/Q125H/Q99D/R33Q/R42Y/R54Q/S133A/S66F/T210M/V115G/Y107V/Y59L/Y89S)
[7] = target: HLA DRB1*1101 (Homo sapiens, UniProt P01903+P01911, A100R/A169T/A87E/I96F/K41T/L162R/M171V/P40S/Q125H/Q178H/Q39Y/Q99D/R42S/S66Y/T262R/V115G/W38E)
[8] = target: HLA DRB1*1302 (Homo sapiens, UniProt P01903+P01911, A100E/A169T/K41T/L162R/M171V/P40S/Q125H/Q178H/Q39Y/Q99D/R42S/S66N/T262R/V115G/W38E/Y61H)
[9] = target: HLA DRB1*1501 (Homo sapiens, UniProt P01903+P01911)
[10] = target: HLA DRB3*0101 (Homo sapiens, UniProt P01903+P79483)

Sequence of HLA DRB1*0301 (P01903 26-254 limits assumed, other chains not shown): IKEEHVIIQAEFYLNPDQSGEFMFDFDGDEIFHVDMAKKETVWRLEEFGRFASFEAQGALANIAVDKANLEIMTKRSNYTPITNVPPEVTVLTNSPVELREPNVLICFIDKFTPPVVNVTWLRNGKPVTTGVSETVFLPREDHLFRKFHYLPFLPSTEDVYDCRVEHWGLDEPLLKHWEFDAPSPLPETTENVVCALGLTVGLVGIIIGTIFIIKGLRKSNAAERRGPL
Sequence of HLA DRB1*1101 (P01903 26-254 limits assumed, other chains not shown): as above
Sequence of HLA DRB1*1302 (P01903 26-254 limits assumed, other chains not shown): as above

Compound	IC50 [1] [µM]	IC50 [2] [µM]	IC50 [3] [µM]	IC50 [4] [µM]	IC50 [5] [µM]	IC50 [6] [µM]	IC50 [7] [µM]	IC50 [8] [µM]	IC50 [9] [µM]	IC50 [10] [µM]
CC(C)C[C@H](NC(=O)[C@H](C)NC(=O)[C@H](CO)NC(=O)[C@H](CC(=O)O)NC(=O)[C@H](CCC(=O)O)NC(=O)[C@@H]1CCCN1)C(=O)N[C@@H](CC(C)C)C(=O)N[C@@H](CCC(=O)O)C(=O)N[C@@H](CC(=O)O)C(=O)N1CCC[C@H]1C(=O)N[C@@H](C)C(=O)NCC(=O)O [30.8]	> 5	> 5	> 5	> 5	> 5	> 5	> 5	> 5	> 5	2.05
APAAPANPGLII [34.2]	1.27	> 5	> 5	> 5	> 5	> 5	> 5	0.642	> 5	> 5
AYQQGVTVDSIG [24.2]	0.471	> 5	0.212	> 5	> 5	2.72	> 5	> 5	> 5	> 5
DPEDSALLEDPA [30.7]	> 5	> 5	> 5	> 5	> 5	> 5	> 5	> 5	> 5	1.62
HAPAAPANPGLI [34.1]	3.55	> 5	> 5	> 5	> 5	> 5	> 5	> 5	> 5	> 5
YQQGVTVDSIGM [24.3]	> 5	> 5	4.41	> 5	> 5	0.389	> 5	> 5	> 5	> 5
